Experimental data reported in patent US10508104B2, “6-hydroxy-5-(phenyl/heteroarylsulfonyl)pyrimidin-4(1H)-one as APJ agonists” (Bristol-Myers Squibb Company, priority 2016, dated 2019).

molecular target: human APJ receptor (Homo sapiens (Human), UniProt P35414); test: Intracellular cAMP accumulation assay (APJ hcAMP, HTRF); type: cell-based; conditions: human APJ, intracellular cAMP accumulation; read-out: Human APJ cAMP EC50 Potency range
Procedure: Intracellular cAMP Accumulation Assay
HEK293 cells stably expressing human APJ receptor were used to assess the activity of compounds. Cultured cells were detached and resuspended in the cAMP Homogeneous Time-Resolved Fluorescence (HTRF) assay buffer (Cisbio cat; #62AM4PEJ). The assay was performed in 384-well assay plates (Perkin-Elmer; cat #6008289) according to assay protocol provided by the manufacturer. Serial dilutions of a compound together with assay buffer containing […] and 2 μM forskolin were added to each well containing 5,000 cells and incubated for 30 minutes at room temperature. Subsequently, cAMP D2 reagent was added in the lysis buffer followed by the EuK antibody (Cisbio; cat #62AM4PEJ) and incubated for 60 min. The fluorescence emission ratio was measured using fluorometer. The intracellular cAMP concentrations (compound-stimulated inhibition of forskolin-mediated cAMP production) were calculated by extrapolation from a standard curve using known cAMP concentrations. The EC50 values were obtained by fitting the data to a sigmoidal concentration-response curve with variable slope.
The EC50 value of each compound is presented at the end of the example description.
The biological activity of the exemplified compounds of this invention determined by the assay described above is shown at the end of each example.

human APJ receptor, sequence (P35414 whole entry): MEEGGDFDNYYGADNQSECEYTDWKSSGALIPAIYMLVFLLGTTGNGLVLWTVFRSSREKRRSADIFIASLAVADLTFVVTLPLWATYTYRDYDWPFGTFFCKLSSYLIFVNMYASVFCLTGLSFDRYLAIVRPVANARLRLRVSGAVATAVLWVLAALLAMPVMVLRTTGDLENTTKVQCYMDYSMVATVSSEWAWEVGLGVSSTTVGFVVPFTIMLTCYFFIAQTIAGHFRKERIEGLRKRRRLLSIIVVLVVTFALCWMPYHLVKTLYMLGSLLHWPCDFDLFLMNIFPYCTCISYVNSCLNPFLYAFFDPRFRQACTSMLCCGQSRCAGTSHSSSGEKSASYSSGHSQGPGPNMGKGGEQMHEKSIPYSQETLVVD

Row | Compound | EC50
1 | COc1cccc(OC)c1-n1c(CCC(C)C)nc(=O)c(S(=O)(=O)c2ccccc2-c2ccccc2)c1O [Example 22, 1-(2,6-dimethoxyphenyl)-6-hydroxy-2-(3-methylbutyl)-5-(2-phenylbenzenesulfonyl)-1,4-dihydropyrimidin-4-one] | 10 to 100 nM
2 | COc1cccc(OC)c1-n1c(CCC(C)C)nc(=O)c(S(=O)(=O)c2cccc(-c3ccc(F)nc3)c2)c1O [Example 23, 1-(2,6-dimethoxyphenyl)-5-[3-(6-fluoropyridin-3-yl)benzenesulfonyl]-6-hydroxy-2-(3-methylbutyl)-1,4-dihydropyrimidin-4-one] | 0.01 to 10 nM
3 | COc1cccc(OC)c1-n1c(CCC(C)C)nc(=O)c(S(=O)(=O)c2ccccc2-c2ccc(F)nc2)c1O [Example 24, 1-(2,6-dimethoxyphenyl)-5-[2-(6-fluoropyridin-3-yl)benzenesulfonyl]-6-hydroxy-2-(3-methylbutyl)-1,4-dihydropyrimidin-4-one] | 10 to 100 nM
4 | COc1cccc(OC)c1-n1c(CCC(C)C)nc(=O)c(S(=O)(=O)c2ccccc2-c2cn(C)nc2C(F)(F)F)c1O [Example 25, 1-(2,6-dimethoxyphenyl)-6-hydroxy-5-{2-[1-methyl-3-(trifluoromethyl)-1H-pyrazol-4-yl]benzenesulfonyl}-2-(3-methylbutyl)-1,4-dihydropyrimidin-4-one] | 100 to 300 nM
5 | CCCCc1nc(=O)c(S(=O)(=O)c2ccc(-c3ccc(F)cc3C)cc2)c(O)n1-c1c(OC)cccc1OC [Example 26, 2-butyl-1-(2,6-dimethoxyphenyl)-5-[4-(4-fluoro-2-methylphenyl)benzenesulfonyl]-6-hydroxy-1,4-dihydropyrimidin-4-one] | 0.01 to 10 nM
6 | CCCCc1nc(=O)c(S(=O)(=O)c2ccc(-c3ccnc(C)c3)cc2)c(O)n1-c1c(OC)cccc1OC [Example 27, 2-butyl-1-(2,6-dimethoxyphenyl)-6-hydroxy-5-[4-(2-methylpyridin-4-yl)benzenesulfonyl]-1,4-dihydropyrimidin-4-one] | 0.01 to 10 nM
7 | CCCCc1nc(=O)c(S(=O)(=O)c2ccc(-c3ccc(N4CCOCC4)nc3)cc2)c(O)n1-c1c(OC)cccc1OC [Example 28, 2-butyl-1-(2,6-dimethoxyphenyl)-6-hydroxy-5-{4-[6-(morpholin-4-yl)pyridin-3-yl]benzenesulfonyl}-1,4-dihydropyrimidin-4-one] | 0.01 to 10 nM
8 | CCCCc1nc(=O)c(S(=O)(=O)c2ccc(-c3ccccc3OC3CC3)cc2)c(O)n1-c1c(OC)cccc1OC [Example 29] | 0.01 to 10 nM
9 | CCCCc1nc(=O)c(S(=O)(=O)c2ccc(-c3cccnc3OC)cc2)c(O)n1-c1c(OC)cccc1OC [Example 30, 2-butyl-1-(2,6-dimethoxyphenyl)-6-hydroxy-5-[4-(2-methoxypyridin-3-yl)benzenesulfonyl]-1,4-dihydropyrimidin-4-one] | 0.01 to 10 nM
10 | CCCCc1nc(=O)c(S(=O)(=O)c2ccc(-c3ccc(C(C)(C)O)cc3)cc2)c(O)n1-c1c(OC)cccc1OC [Example 31, 2-butyl-1-(2,6-dimethoxyphenyl)-6-hydroxy-5-{4-[4-(2-hydroxypropan-2-yl)phenyl]benzene-sulfonyl}-1,4-dihydropyrimidin-4-one] | 0.01 to 10 nM
11 | COc1cccc(OC)c1-n1c(COC(C)C)nc(=O)c(S(=O)(=O)c2ccc(-c3ccc(F)nc3)cc2)c1O [Example 32, 1-(2,6-dimethoxyphenyl)-5-[4-(6-fluoropyridin-3-yl)benzenesulfonyl]-6-hydroxy-2-[(propan-2-yloxy)methyl]-1,4-dihydropyrimidin-4-one] | 0.01 to 10 nM
12 | COc1cccc(OC)c1-n1c(COC(C)C)nc(=O)c(S(=O)(=O)c2ccc(-c3ccccc3)cc2)c1O [Example 33, 1-(2,6-dimethoxyphenyl)-6-hydroxy-5-(4-phenylbenzenesulfonyl)-2-[(propan-2-yloxy)methyl]-1,4-dihydropyrimidin-4-one] | 0.01 to 10 nM
13 | CCCCc1nc(=O)c(S(=O)(=O)c2ccc(-c3ccncc3F)cc2)c(O)n1-c1c(OC)cccc1OC [Example 34, 2-butyl-1-(2,6-dimethoxyphenyl)-5-[4-(3-fluoropyridin-4-yl)benzenesulfonyl]-6-hydroxy-1,4-dihydropyrimidin-4-one] | 0.01 to 10 nM
14 | CCCCc1nc(=O)c(S(=O)(=O)c2ccc(-c3cc(F)ccc3F)cc2)c(O)n1-c1c(OC)cccc1OC [Example 35, 2-butyl-5-[4-(2,5-difluorophenyl)benzenesulfonyl]-1-(2,6-dimethoxyphenyl)-6-hydroxy-1,4-dihydropyrimidin-4-one] | 0.01 to 10 nM
15 | CCCCc1nc(=O)c(S(=O)(=O)c2ccc(-c3ccc(Cl)c(F)c3)cc2)c(O)n1-c1c(OC)cccc1OC [Example 36, 2-butyl-5-[4-(4-chloro-3-fluorophenyl)benzene-sulfonyl]-1-(2,6-dimethoxyphenyl)-6-hydroxy-1,4-dihydropyrimidin-4-one] | 0.01 to 10 nM

Results, then the molecule that gave them:

Row | EC50 | Compound
16 | 0.01 to 10 nM | CCCCc1nc(=O)c(S(=O)(=O)c2ccc(-c3cnc(F)c(Cl)c3)cc2)c(O)n1-c1c(OC)cccc1OC [Example 37, 2-butyl-5-[4-(5-chloro-6-fluoropyridin-3-yl)benzenesulfonyl]-1-(2,6-dimethoxyphenyl)-6-hydroxy-1,4-dihydropyrimidin-4-one]
17 | 0.01 to 10 nM | CCCCc1nc(=O)c(S(=O)(=O)c2ccc(-c3ccc(CN(C)C)cc3)cc2)c(O)n1-c1c(OC)cccc1OC [Example 38, 2-butyl-1-(2,6-dimethoxyphenyl)-5-(4-{4-[(dimethyla,o)methyl]phenyl}benzenesulfonyl)-6-hydroxy-1,4-dihydropyrimidin-4-one]
18 | 0.01 to 10 nM | CCCCc1nc(=O)c(S(=O)(=O)c2ccc(-c3ccc(C(=O)NC4CC4)cc3)cc2)c(O)n1-c1c(OC)cccc1OC [Example 39, 4-(4-{[2-butyl-1-(2,6-dimethoxyphenyl)-6-hydroxy-4-oxo-1,4-dihydropyrimidin-5-yl]sulfonyl}phenyl)-N-cyclopropylbenzamide]
19 | 0.01 to 10 nM | CCCCc1nc(=O)c(S(=O)(=O)c2ccc(-c3ccncc3C)cc2)c(O)n1-c1c(OC)cccc1OC [Example 40, 2-butyl-1-(2,6-dimethoxyphenyl)-6-hydroxy-5-[4-(3-methylpyridin-4-yl)benzenesulfonyl]-1,4-dihydropyrimidin-4-one]
20 | 0.01 to 10 nM | CCCCc1nc(=O)c(S(=O)(=O)c2ccc(-c3ccc(C4CC4)nc3)cc2)c(O)n1-c1c(OC)cccc1OC [Example 41, 2-butyl-5-[4-(6-cyclopropylpyridin-3-yl)benzenesulfonyl]-1-(2,6-dimethoxyphenyl)-6-hydroxy-1,4-dihydropyrimidin-4-one]
21 | 0.01 to 10 nM | CCCCc1nc(=O)c(S(=O)(=O)c2ccc(-c3cccc(F)n3)cc2)c(O)n1-c1c(OC)cccc1OC [Example 42, 2-butyl-1-(2,6-dimethoxyphenyl)-5-[4-(6-fluoropyridin-2-yl)benzenesulfonyl]-6-hydroxy-1,4-dihydropyrimidin-4-one]
22 | 0.01 to 10 nM | CCCCc1nc(=O)c(S(=O)(=O)c2ccc(-c3ccnc(OC)c3)cc2)c(O)n1-c1c(OC)cccc1OC [Example 43, 2-butyl-1-(2,6-dimethoxyphenyl)-6-hydroxy-5-[4-(2-methoxypyridin-4-yl)benzenesulfonyl]-1,4-dihydropyrimidin-4-one]
23 | 0.01 to 10 nM | CCCCc1nc(=O)c(S(=O)(=O)c2ccc(-c3ccc(C(N)=O)cc3)cc2)c(O)n1-c1c(OC)cccc1OC [Example 44, 4-(4-{[2-butyl-1-(2,6-dimethoxyphenyl)-6-hydroxy-4-oxo-1,4-dihydropyrimidin-5-yl]sulfonyl}phenyl) benzamide]
24 | 0.01 to 10 nM | CCCCc1nc(=O)c(S(=O)(=O)c2ccc(-c3cccc(OCOC)c3)cc2)c(O)n1-c1c(OC)cccc1OC [Example 45, 2-butyl-1-(2,6-dimethoxyphenyl)-6-hydroxy-5-{4-[3-(methoxymethoxy)phe-nyl]benzenesulfonyl}-1,4-dihydropyrimidin-4-one]
25 | 0.01 to 10 nM | CCCCc1nc(=O)c(S(=O)(=O)c2ccc(-c3ccccc3C#N)cc2)c(O)n1-c1c(OC)cccc1OC [Example 46, 2-(4-{[2-butyl-1-(2,6-dimethoxyphenyl)-6-hydroxy-4-oxo-1,4-dihydropyrimidin-5-yl]sulfonyl}phenyl) benzonitrile]
26 | 0.01 to 10 nM | CCCCc1nc(=O)c(S(=O)(=O)c2ccc(-c3cccc(C#N)c3)cc2)c(O)n1-c1c(OC)cccc1OC [Example 47, 3-(4-{[2-butyl-1-(2,6-dimethoxyphenyl)-6-hydroxy-4-oxo-1,4-dihydropyrimidin-5-yl]sulfonyl}phenyl) benzonitrile]
27 | 0.01 to 10 nM | CCCCc1nc(=O)c(S(=O)(=O)c2ccc(-c3ccc(NC(=O)OC)cc3)cc2)c(O)n1-c1c(OC)cccc1OC [Example 48, methyl N-[4-(4-{[2-butyl-1-(2,6-dimethoxyphenyl)-6-hydroxy-4-oxo-1,4-dihydropyrimidin-5-yl]sulfonyl}phenyl)phe-nyl]carbamate]
28 | 0.01 to 10 nM | CCCCc1nc(=O)c(S(=O)(=O)c2ccc(-c3ccccc3COC)cc2)c(O)n1-c1c(OC)cccc1OC [Example 49, 2-butyl-1-(2,6-dimethoxyphenyl)-6-hydroxy-5-{4-[2-(methoxymethyl)phenyl]benzenesulfonyl}-1,4-dihydropyrimidin-4-one]
29 | 0.01 to 10 nM | CCCCc1nc(=O)c(S(=O)(=O)c2ccc(-c3cncc(F)c3)cc2)c(O)n1-c1c(OC)cccc1OC [Example 50, 2-butyl-1-(2,6-dimethoxyphenyl)-5-[4-(5-fluoropyridin-3-yl)benzenesulfonyl]-6-hydroxy-1,4-dihydropyrimidin-4-one]
